We go through 6 compounds from PubChem BioAssay (NCI).

Test systems include SN12K1 renal; P388 leukemia; P388/ADR leukemia; M19-MEL melanoma; RXF-631 renal.
Experiment in all cases: NCI tumour cell line growth inhibition, 48 h

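48-hour exposure; five concentrations; linearly interpolated endpoints. The concentration for full growth arrest is given as TGI.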

Take `Cn1c(=O)[nH]c2nncnc2c1=O`: the TGI with SN12K1 renal was greater than 625 µM; with P388 leukemia it was 148 µM; in the assay with P388/ADR leukemia it was greater than 625 µM; in the assay on M19-MEL melanoma it was 115 µM.
For the compound `COc1ccc(C(=O)C2=NON3OC23C(=O)c2ccc(OC)cc2)cc1` (configuration not stated), the TGI with RXF-631 renal is 31.8 µM; with M19-MEL melanoma, 32.8 µM.
As to `COc1ccc2nc3c(C(=O)NCCN(C)C)cccc3cc2c1`, the TGI came to 3.27 µM with SN12K1 renal, 1.49 µM with P388 leukemia and 3.05 µM with P388/ADR leukemia.
Compound `COc1nc2[nH]ccc2c(=O)[nH]1` displayed a TGI in the assay on RXF-631 renal greater than 100 µM.
Take `N#CC12Cc3cc4c(cc3-c3cccc(c31)CCN2C(=O)c1ccccc1)OCO4` (configuration not stated): in the assay with M19-MEL melanoma, the TGI is greater than 100 µM.
For the compound `O=c1ccc2nc3cc(Br)ccc3sc-2c1`, the TGI in the assay with M19-MEL melanoma is greater than 100 µM.
